This is an account of results in the METLIN SMRT retention time set (Domingo-Almenara et al. 2019).

The nature of this series: gradient 5% acetonitrile 3 min, to 50% in 2 min, to 85% in 15 min, held 3 min, 100 µL/min. The note with it: column: Zorbax Extend-C18 2.1 x 50 mm; eluents: water / acetonitrile, 0.1% formic acid. Summed up:
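The system's dead and dwell volumes were 40 μL and 900 μL, with a Zorbax Extend-C18 column (2.1 × 50 mm, 1.8 μm) run at 100 μL/min in water and acetonitrile containing 0.1% formic acid each. Pure standards were analyzed in mixtures of ~100 molecules by HPLC–quadrupole time-of-flight mass spectrometry in positive and negative ionization mode. Retention time was assigned from computationally picked, manually inspected adduct peaks.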
As to `COc1ccc(N2CCN(c3ccc4cc(S(=O)(=O)N5CCCCC5C)ccc4n3)CC2)cc1` (stereo not given), the RP-LC retention time was determined as 991 s.

With `CCCCNC(=O)Cn1nc2c3cc(-c4ccc(F)cc4)nn3ccn2c1=O`, the RP-LC retention time amounted to 812 s.

Regarding `CCSc1nc2ccc(NS(=O)(=O)c3ccc(F)cc3)cc2s1`, the RP-LC retention time amounted to 1010 s. `COc1ccc(CCNC(=O)Nc2nnc(SC)s2)cc1` showed an RP-LC retention time of 718 s. `CCc1ccc(C(=O)N2CCC(COc3ccc(C(=O)NC(C)C)cc3)CC2)cc1` displayed an RP-LC retention time of 941 s. Regarding `Cc1ccc(-n2cc(C3=CCN(CC(=O)NCc4cccs4)CC3)cn2)cc1C`, the RP-LC retention time stood at 735 s. The molecule `Cc1nc(-c2cc(S(=O)(=O)Nc3cccc(F)c3)c(C)s2)sc1C` returned an RP-LC retention time of 1060 s. The molecule `Cc1ccc(Nc2nc(C)cc(N3CCN(S(=O)(=O)c4ccc(F)c(F)c4)CC3)n2)cc1` displayed an RP-LC retention time of 808 s.

With `Cc1ccc(-c2nc(C3CC(=O)N(C4CCCCC4)C3)no2)cn1` (stereo not given), the RP-LC retention time turned out to be 771 s.

`O=C(c1ccc(F)c(Cl)c1)N1CCC(n2c(-c3ccco3)nc3cccnc32)C1` (stereo not given) came in with an RP-LC retention time of 800 s.

In turn, `Cc1nnc(N2CCC(C(=O)NCCN(C)C)CC2)c2nn(-c3ccc(Cl)cc3)c(C)c12` had an RP-LC retention time of 586 s. `Cc1oc(C2CCN(C(=O)Nc3ccc(Cl)cc3F)CC2)nc1C(=O)N1CCCCC1`: the RP-LC retention time came out at 885 s. Molecule `CCCc1nc(-c2c(C)cc(C)nc2NC(=O)COc2ccccc2)no1` showed an RP-LC retention time of 946 s. With `O=C(c1ccc2c(c1)OCO2)N1CCN(c2cc(-c3cccs3)[nH]n2)CC1`, the RP-LC retention time worked out at 732 s. The molecule `O=C(NCCc1ccncc1)C1CCc2sc(C(=O)N3CCCC3)cc2C1` (stereo not given) returned an RP-LC retention time of 506 s. For `COc1ccc(-c2c(C(=O)NC(C)C)nc3ccccn23)cc1`, the RP-LC retention time was found to be 676 s. In the case of `O=C(Nc1cccc(Cl)c1)C1CCCN(C(=O)c2cc(-c3ccccn3)n[nH]2)C1` (stereo not given), the RP-LC retention time was determined as 740 s.

On to `Cc1cc(NC(=O)N2C[C@@H](F)C[C@H]2C(=O)N2CCCCC2)ccc1Br`, for which the RP-LC retention time is 824 s.

`O=C(c1ccco1)N1CCN(c2ccc3cc(S(=O)(=O)N4CCCC4)ccc3n2)CC1` returned an RP-LC retention time of 704 s. With `Cc1ccc(Cl)cc1NC(=O)Cn1c(=O)cnc2cc(C(=O)NC3CC3)ccc21`, the RP-LC retention time came out at 674 s. In the case of `O=C(Cc1c[nH]c2ccccc12)Nc1cc(-c2ccccn2)no1` it was 754 s.

For the molecule `COc1ccc(C2(CNC(=O)CCc3c(C)noc3C)CCOCC2)cc1`, the RP-LC retention time came to 660 s. Turning to `Cc1ccc(-c2ccc(=O)n(Cc3nc(-c4cccs4)no3)n2)cc1`, the RP-LC retention time stood at 990 s. For the molecule `COc1ccc(C(O)Cn2ccn3nc(-c4ccc(C)c(C)c4)cc3c2=O)cc1OC` (stereo not given), the RP-LC retention time was 881 s. With `COc1ccc(Br)cc1CNC(=O)c1ccc2c(c1)NC(=O)C1CCCCN21` (stereo not given), the RP-LC retention time is 884 s. For the molecule `CC(C)NC(=O)N1CCCC(OCc2nc(-c3ccccc3)no2)C1` (stereo not given), the RP-LC retention time stood at 551 s. As to `CCC1Oc2ccc(S(=O)(=O)N3CCC(C(=O)Nc4cccc(OC)c4)CC3)cc2NC1=O` (stereo not given), the RP-LC retention time is 854 s. As to `Cc1nc(-c2nnc(NC(=O)Cn3cnc4c3c(=O)n(C)c(=O)n4C)o2)cs1`, the RP-LC retention time was found to be 569 s.

As for `CCOC(=O)c1nc(NCc2ccccc2Cl)c2ccccc2n1`, the RP-LC retention time was 834 s. The molecule `COCc1cnc2c(c1SCc1cccc(F)c1)c(=O)n(C)c(=O)n2C` yielded an RP-LC retention time of 960 s. As to `CC(C(=O)N1CCN(c2ccccn2)CC1)n1nc(-c2ccccc2)c2cc(Cl)ccc21` (stereo not given), the RP-LC retention time amounted to 835 s. Take `CCc1sc(NC(=O)C2CCCCC2)nc1-c1ccccc1`: the RP-LC retention time turned out to be 1200 s.

`O=C(Nc1nc(-c2ccc(Br)cc2)cs1)c1cccc(-n2cnnc2)n1` yielded an RP-LC retention time of 884 s. `CC1(C(=O)NC2CCCC2)CN(S(C)(=O)=O)CC(=O)N1Cc1ccc(Cl)cc1` (stereo not given) yielded an RP-LC retention time of 834 s. `CCn1nc(-c2csc(S(=O)(=O)N3CCC(C)CC3)c2)ccc1=O` gave an RP-LC retention time of 971 s. In turn, `COc1ccc(-c2cc(N)n[nH]2)c(OC)c1` displayed an RP-LC retention time of 595 s.

Consider `Cc1ccccc1NS(=O)(=O)c1ccc(-c2c(C)noc2C)cc1`, for which the RP-LC retention time amounted to 924 s. The molecule `CCc1noc(NC(C)=O)c1-c1ccc(OC)c(S(=O)(=O)Nc2cccc(C(F)(F)F)c2)c1` came in with an RP-LC retention time of 862 s. Regarding `CCc1nc(-c2csc(S(=O)(=O)N3CCC(C(=O)Nc4ccc(Cl)cc4C)CC3)c2)no1`, the RP-LC retention time came to 1180 s.

For `O=C(Nc1ccccc1F)N1C[C@H]2C[C@@H](C1)c1cccc(=O)n1C2`, the RP-LC retention time is 610 s. In turn, `CSc1ccc(-c2noc(CN3C(=O)C(C)Oc4ccccc43)n2)cc1` (stereo not given) showed an RP-LC retention time of 1140 s. For `Cc1ccn2cc(C(=O)NCc3ccc(Cl)cc3)nc2c1`, the RP-LC retention time was 704 s. Turning to `CCc1nc2cc3c(cc2n1CC(=O)Nc1ccc2c(c1)OCCCO2)OCCO3`, the RP-LC retention time was found to be 648 s. Next, `O=C(CSc1nnc(COc2ccccc2)o1)NCc1ccco1`: 753 s.

`CC(C)Cn1cc(S(=O)(=O)Nc2cccc(Cl)c2)c2cccnc21` showed an RP-LC retention time of 912 s. `COc1ccccc1N1CCN(C(=O)Cn2cnc3onc(C)c3c2=O)CC1` gave an RP-LC retention time of 720 s. Consider `O=C(NC(c1ccccc1)c1nnc(-c2ccccc2Cl)o1)c1ccco1` (stereo not given), for which the RP-LC retention time came out at 908 s. For `CCSc1nnc(-c2nn(C)c3c2CN(C(=O)c2ccccc2F)CC3)n1C`, the RP-LC retention time came to 732 s. For `Cc1nc(-n2cccc2)sc1C(=O)NCCN(C)C`, the RP-LC retention time worked out at 547 s.

Turning to `COCc1nc(C2CCN(S(=O)(=O)Cc3ccccc3)C2)no1` (stereo not given), the RP-LC retention time was 795 s. `CCC(=O)N1CCc2cc(N3CC(C(=O)Nc4ccccc4F)CC3=O)ccc21` (stereo not given) displayed an RP-LC retention time of 741 s. Next, `Cc1noc(C)c1CC(=O)N1CCc2ccccc2[C@H]1C`: 732 s; `O=C(CN1CCN(C(=O)Nc2ccc(Cl)cc2)CC1=O)N1CCN(c2ccccn2)CC1`: 592 s; `CCN1C(=O)C2(CCN(S(=O)(=O)c3ccc(C)c(F)c3)CC2)c2ccccc21`: 1120 s. Next, `Cc1noc(C2CN(C(=O)c3n[nH]c4ccccc34)CC23CCOCC3)n1` (stereo not given): 665 s.

`CCCCNC(=O)C1CCCN(C(=O)Nc2ccc(NC(=O)NC3CCCC3)cc2)C1` (stereo not given): the RP-LC retention time was found to be 728 s. In the case of `Cn1c(N2CCCC(C(=O)NC3CCCCCC3)C2)cc(=O)n(C)c1=O` (stereo not given) it was 715 s. Consider `COC(=O)c1cc(OCc2cccc(OC)c2)c2cc(OC)ccc2n1`, for which the RP-LC retention time was 901 s. Next, `CCOc1ccc(NC(=O)N2CCC(c3nc(C(=O)N(C)C)c(C)o3)CC2)cc1`: 696 s; `Cc1ccc(NC(=O)NCC(c2cccnc2)c2cn(C)c3ccccc23)cc1Cl` (stereo not given): 773 s; `COCCNC(=O)c1ccc(-n2nc(C)c3c2CCCC3=O)cc1`: 633 s.

On to `Cc1ccsc1CN1CC(Oc2ccc(-c3noc(-c4ccncc4)n3)cc2)C1`, for which the RP-LC retention time was found to be 715 s. As to `O=S(=O)(NCc1cccnc1)c1ccc(Cl)cc1`, the RP-LC retention time was determined as 566 s. In the case of `Cc1ccc(N2C(=O)CN(S(C)(=O)=O)CC2(C)C(=O)NC2CCCCCCC2)cc1Cl` (stereo not given) it was 980 s.

In turn, `Cc1ccc(N2CCC(NC(=O)Nc3cccc(Cl)c3C)C2=O)cc1` (stereo not given) yielded an RP-LC retention time of 909 s. In the case of `O=C(Nc1ccc2c(c1)N(C(=O)C1CCCO1)CC2)c1ccc(F)c(F)c1` (stereo not given) it was 771 s. For `COc1ccccc1CNS(=O)(=O)c1cc(-c2[nH]ncc2C(=O)N(C)C)oc1C`, the RP-LC retention time amounted to 666 s.

`COCCN1CCC(N2CCCN(C(=O)Cc3c[nH]c4ccccc34)CC2)C1=O` (stereo not given) yielded an RP-LC retention time of 576 s.

For the molecule `COC(=O)c1nnn(-c2cccc(C)c2C)c1C(=O)OC`, the RP-LC retention time stood at 878 s. As to `Cc1ccc(Nc2ccc(N)cc2S(=O)(=O)O)cc1`, the RP-LC retention time was 652 s. In turn, `COCCNC(=O)c1cc(-c2ccccn2)nc2ccccc12` displayed an RP-LC retention time of 650 s. Take `Cc1ccc(C(=O)N(C)Cc2cccnc2Oc2ccccc2)cn1`: the RP-LC retention time was found to be 861 s. `CN1CCN(C(=O)c2csc(N3CCN(c4ccc(F)cc4)CC3)n2)CC1` registered an RP-LC retention time of 643 s. `COCCn1ccc2nc(C)c(C(=O)NCCc3c[nH]c4ccccc34)cc2c1=O` gave an RP-LC retention time of 767 s. In turn, `COc1ccc(-c2cc(N3CCC(NC(=O)c4ccc(N(C)C)cc4)C3)n[nH]2)cc1` (stereo not given) displayed an RP-LC retention time of 702 s. As to `Cc1cc(C)c(C)c(S(=O)(=O)NCCc2cn(CC(C)C)c3ncccc23)c1C`, the RP-LC retention time came out at 1120 s. In the case of `CCc1ccc(C(C)NC(=O)c2ccc3[nH]cc(C(=O)C(=O)N4CCCCCC4)c3c2)cc1` (stereo not given) it was 936 s; in that of `CN(C)c1cccc(-c2nc(-c3ccc(S(=O)(=O)N4CCCC4)cc3)no2)c1`, 1250 s; in that of `CCN1C(=O)COc2ccc(-c3noc(-c4ccc(OC)cc4)n3)cc21`, 1130 s. Molecule `CC1CN(c2nc3c(c(=O)n(C)c(=O)n3C)n2Cc2cccc(F)c2)CC(C)O1` (stereo not given) came in with an RP-LC retention time of 885 s.
